Laboratory results from patent US20190000803A1, “CHONDROITIN COMPLEXES FOR TRANSCUTANEOUS ABSORPTION” (Altergon S.A., priority 2012, published 2019).
Each block holds one compound with its values, some of them ahead of it.

Columns and labels:
[1] = Dialysis equilibrium study of diclofenac release from diclofenac-chondroitin complexes; format: physicochemical; details: 2 KDa cut-off, 100 mL in 2 L water, 25° C.
[2] = Topical absorption and distribution of [3H]chondroitin gels in nude mice; format: in vivo, Charles River nude mice
Protocol: 60 five-month-old Charles River nude mice of both sexes were used as experimental model to evaluate the transcutaneous absorption of chondroitin. The animals were randomised into 12 groups of 5 which, as reported in the study design in table 1, were treated with 50 mg of [^3H]chondroitin gel with different MWs, prepared as described in example 1. During the study the animals were kept in individual cages, with unrestricted access to food and water.
The animals were euthanised 1, 5, 10 and 20 h after the application, as reported in the trial design in table 1. Immediately after euthanisation the gel application area was thoroughly washed until no detectable traces of radioactivity remained in the washing water, in order to discriminate between the radioactivity applied and the radioactivity absorbed by the skin. The treated skin areas, liver and blood were recovered from the euthanised animals, and the samples were weighed and frozen immediately after removal. The urine of the animals was recovered from the cages by washing.
Skin, liver and blood samples (150-200 mg) were solubilised in Soluene […] at ambient temperature. The radioactivity was measured by liquid-phase scintillation on the solubilised samples and the urine.

[3] = Absorption of diclofenac by human skin using the Franz cell; format: in vitro ADME; details: compared with absence of the polysaccharide or presence of chondroitin sulphate
Protocol: The skin was frozen to −20° C. immediately after removal, and kept at that temperature until the time of use. Before being placed in the Franz cells, the frozen skin was cleaned of subcutaneous fat, so that only the stratum corneum, the epidermis and the dermis were used, and cut to a size suitable for positioning in the Franz cell, with the stratum corneum facing upwards. Before the study began, the cell was maintained at 30° C. for 10 h with continual stirring of the receptor solution consisting of 10 mL of HBSS (Hank's Buffered Saline Solutions). The surface on which the formulation was deposited measured about 3 cm^2. Before application of the gel in the cells, the receptor solution was replaced, taking care to eliminate all air bubbles between skin and solution.
At the indicated times the receptor phase was recovered and the skin surface was washed thoroughly to remove all the unabsorbed gel. The skin was recovered, homogenised and digested for 10 h under stirring at 30° C. with collagenase (5,200 I/g of skin) in 10 mM of phosphate buffer pH 7.4. At the end of the incubation, 0.4 volumes of ethanol were added and the mixture was centrifuged at 10,000 rpm for 20 min. […] The eluate was monitored at 276 nm.

[4] = Absorption of ketorolac by human skin using the Franz cell; format: in vitro ADME; details: compared with absence of the polysaccharide
Protocol: 10 mg of the following gels was applied to the skin surface: a) tromethamine ketorolac salt gel (per gram of gel: 100 mg of polyethylene glycol, 1 mg of benzyl alcohol, 200 mg of tromethamine ketorolac salt and water q.s. for 1 g, dissolved at 50° C. under vigorous stirring); b) tromethamine ketorolac salt-chondroitin gel (0.535 moles of tromethamine ketorolac salt/mole of disaccharide chondroitin units; per gram of gel: 100 mg of polyethylene glycol, 1 mg of benzyl alcohol, 200 mg of chondroitin MW 62 KDa, 100 mg of tromethamine ketorolac salt and water q.s. for 1 g, dissolved at 50° C. under vigorous stirring).
The quantity of ketorolac present in the skin washing solution (unabsorbed part), in the enzymatic tissue digestate (part absorbed by the skin) and in the receptor fluid (part that crossed the skin structure) was determined quantitatively by HPLC. The tests were conducted on a Waters model 746 (USA) HPLC, equipped with a μ-bondapack C18 column (150×4.6 millimetres). A solution of acetonitrile, deionised water and orthophosphoric acid (45:54.5:0.5 in vol.), with a final pH of 3.5, was used as mobile phase, operating with a flow rate of 1 mL/min. The eluate was monitored at 280 nm. Quantitation was performed by measuring the ratios between the peak area of ketorolac and the peak area of the internal standard, consisting of a naproxen solution with a known titre.

[5] = In vivo transcutaneous absorption of diclofenac gels in nude mice; parameters: species or system Charles River nude mice; details: conclusion from tables 8-10
Protocol: During the study the animals were kept in individual cages, with unrestricted access to food and water.
The animals were euthanised 1, 5 and 10 h after the application, as reported in the trial design in table 7. Immediately after euthanisation the gel application area was washed thoroughly to discriminate between the radioactivity applied and the radioactivity absorbed by the skin. The treated skin areas, liver and blood were recovered from the euthanised animals, and the samples were weighed and frozen immediately after removal. The urine of the animals was recovered from the cages by washing.

[6] = Franz cell, human skin; cited from earlier work

% OD275 present in the dialysis medium ([1]; 1 h): 85%
% OD275 present in the dialysis medium ([1]; 2 h): 94%
% OD275 present in the dialysis medium ([1]; 4 h): 96%
% OD275 present in the dialysis medium ([1]; 8 h): 95%
% OD275 present in the dialysis medium ([1]; 16 h): 96%
Compound: O=C(O)Cc1ccccc1Nc1c(Cl)cccc1Cl [Diclofenac only, 2-(2-[2,6-dichlorophenylamino]phenyl) ethanoic acid]

radioactivity in skin, % of dose applied ([2]; skin, 1 h after topical application of 50 mg gel): about 50 % of dose applied
radioactivity in urine, % of dose applied ([2]; urine, 20 h): about 25 % of dose applied
absorption of diclofenac in the presence of chondroitin [3]: increases significantly
absorption of ketorolac in the presence of chondroitin [4]: increases significantly
Compound: chondroitin
acts as transdermal carrier of diclofenac [5]: acts as an efficient transdermal carrier of diclofenac

acts as transdermal carrier of diclofenac [5]: not
Compound: chondroitin sulphate
ability to transport diclofenac and ibuprofen in the skin [6]: are not

Compound: heparin
ability to transport diclofenac and ibuprofen in the skin [6]: are not

Compound: hyaluronic acid
ability to transport diclofenac and ibuprofen in the skin [6]: able to transport diclofenac and ibuprofen in the skin
